Reference: patent US20210382058A1, “PATIENT SELECTION FOR TREATMENT OF MYC POSITIVE CANCERS WITH INDENOISOQUINOLINES” (Purdue Research Foundation, priority 2020, published 2021)
Read-outs that look alike come from different tables or passages of the source.

Key:
[1] = tested on: MYC protein expression in MCF-7 breast cancer cells; assay: Western blotting of MYC protein level in MCF-7 cells; assay type: cell-based, human; conditions: Homo sapiens, MCF7; western blotting, MCF-7 cells, 0.5, 1, 2, and 4 μM, 24 hours; read-out: MYC Inhibition
Summary of the method: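 MCF-7 cells were exposed to compounds at 0.5, 1, 2 and 4 μM for 24 hours at 37° C. MYC was detected by immunoblot with ECL, using rabbit anti-MYC (1:1000) and anti-GAPDH (1:2000) as loading control.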

NCI-60 cancer cell lines = assay: NCI-60 cancer cell line drug screen (GI50, MGM); assay type: cell-based, human; conditions: Homo sapiens; for GI50: read-out: Antiproliferative Activities [GI50 (μM)]
Description: Cancer cells were incubated with the test compounds at five concentrations ranging from 100 μM to 10 nM for 48 h. […] The approximate average of GI50 values across the entire panel of NCI-60 cancer cell lines for each compound was recorded as the MGM value.

human topoisomerase I = target: T1, human topoisomerase I (Homo sapiens, UniProt P11387); conditions: relative topoisomerase I inhibition levels, previously determined, six levels (0 - 5, +++++ = 5); cited from earlier work
T1 sequence (P11387 1-765): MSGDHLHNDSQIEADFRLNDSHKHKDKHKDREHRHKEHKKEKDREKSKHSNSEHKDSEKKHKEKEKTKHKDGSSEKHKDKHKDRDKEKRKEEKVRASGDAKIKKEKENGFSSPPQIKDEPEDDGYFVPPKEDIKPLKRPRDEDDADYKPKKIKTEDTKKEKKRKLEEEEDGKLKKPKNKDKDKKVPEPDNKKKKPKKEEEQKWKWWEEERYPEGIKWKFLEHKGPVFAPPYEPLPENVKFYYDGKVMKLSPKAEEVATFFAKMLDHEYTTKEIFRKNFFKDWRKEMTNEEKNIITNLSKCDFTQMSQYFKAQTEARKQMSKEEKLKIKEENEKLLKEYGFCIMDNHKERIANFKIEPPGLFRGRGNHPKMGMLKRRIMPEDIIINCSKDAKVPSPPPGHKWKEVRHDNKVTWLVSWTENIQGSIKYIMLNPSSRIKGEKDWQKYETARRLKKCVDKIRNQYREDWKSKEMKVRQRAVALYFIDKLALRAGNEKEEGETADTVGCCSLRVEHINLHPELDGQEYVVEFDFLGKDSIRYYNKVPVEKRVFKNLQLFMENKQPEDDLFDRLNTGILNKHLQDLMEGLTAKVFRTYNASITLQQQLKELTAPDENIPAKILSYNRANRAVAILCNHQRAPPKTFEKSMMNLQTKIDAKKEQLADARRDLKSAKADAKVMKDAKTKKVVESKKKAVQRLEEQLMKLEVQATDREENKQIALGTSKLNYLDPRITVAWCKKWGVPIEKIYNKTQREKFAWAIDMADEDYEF

## COc1cc2c(cc1O)-c1c(c3ccc([N+](=O)[O-])cc3c(=O)n1CCCN)C2=O [Compound 38]
[1]
  minimal effective concentration: 4 µM
NCI-60 cancer cell lines; 786-0, Renal Cancer, 786-0
  GI50: 0.34 µM
NCI-60 cancer cell lines; A498, Renal Cancer, A498
  GI50: 0.96 µM
NCI-60 cancer cell lines; A549, Non-Small Cell Lung Cancer, A549/ATCC
  GI50: 1.31 µM
NCI-60 cancer cell lines; ACHN, Renal Cancer, ACHN
  GI50: 0.28 µM
NCI-60 cancer cell lines; BT-549, Breast Cancer, BT-549
  GI50: 0.36 µM
NCI-60 cancer cell lines; CAKI-1, Renal Cancer, CAKI-1
  GI50: 0.29 µM
NCI-60 cancer cell lines; CCRF-CEM, Leukemia, CCRF-CEM
  GI50: 0.11 µM
NCI-60 cancer cell lines; COLO 205, Colon Cancer, COLO 205
  GI50: 0.69 µM
NCI-60 cancer cell lines; DU-145, Prostate Cancer, DU-145
  GI50: 0.43 µM
NCI-60 cancer cell lines; HCC 2998, Colon Cancer, HCC-2998
  GI50: 0.62 µM
NCI-60 cancer cell lines; HCT-15, Colon Cancer, HCT-15
  GI50: 1.49 µM
NCI-60 cancer cell lines; HCT-116, Colon Cancer, HCT-116
  GI50: 0.15 µM
NCI-60 cancer cell lines; HL-60, Leukemia, HL-60(TB)
  GI50: 1.48 µM
NCI-60 cancer cell lines; HOP-62, Non-Small Cell Lung Cancer, HOP-62
  GI50: 0.46 µM
NCI-60 cancer cell lines; HOP-92, Non-Small Cell Lung Cancer, HOP-92
  GI50: 1.34 µM
NCI-60 cancer cell lines; HT-29, Colon Cancer, HT29
  GI50: 0.48 µM
NCI-60 cancer cell lines; IGROV-1, Ovarian Cancer, IGROV1
  GI50: 1.24 µM
NCI-60 cancer cell lines; K562, Leukemia, K-562
  GI50: 0.77 µM
NCI-60 cancer cell lines; KM12, Colon Cancer, KM12
  GI50: 1.34 µM
NCI-60 cancer cell lines; LOX IMVI, Melanoma, LOX IMVI
  GI50: 0.3 µM
NCI-60 cancer cell lines; Leukemia, SR
  GI50: 0.04 µM
NCI-60 cancer cell lines; MCF7, Breast Cancer, MCF7
  GI50: 0.16 µM
NCI-60 cancer cell lines; MDA-MB-231, Breast Cancer, MDA-MB-231/ATCC
  GI50: 1.57 µM
NCI-60 cancer cell lines; MDA-MB-435, Melanoma, MDA-MB-435
  GI50: 1.3 µM
NCI-60 cancer cell lines; MDA-MB-468, Breast Cancer, MDA-MB-468
  GI50: 0.24 µM
NCI-60 cancer cell lines; MOLT-4, Leukemia, MOLT-4
  GI50: 0.15 µM
NCI-60 cancer cell lines; Malme-3M, Melanoma, MALME-3M
  GI50: 2.16 µM
NCI-60 cancer cell lines; Melanoma, M14
  GI50: 0.46 µM
NCI-60 cancer cell lines; NCI-H23, Non-Small Cell Lung Cancer, NCI-H23
  GI50: 0.38 µM
NCI-60 cancer cell lines; NCI-H226, Non-Small Cell Lung Cancer, NCI-H226
  GI50: 1.18 µM
NCI-60 cancer cell lines; NCI-H322M, Non-Small Cell Lung Cancer, NCI-H322M
  GI50: 1.39 µM
NCI-60 cancer cell lines; NCI-H460, Non-Small Cell Lung Cancer, NCI-H460
  GI50: 0.37 µM
NCI-60 cancer cell lines; NCI-H522, Non-Small Cell Lung Cancer, NCI-H522
  GI50: 0.78 µM
NCI-60 cancer cell lines; OVCAR-3, Ovarian Cancer, OVCAR-3
  GI50: 1.69 µM
NCI-60 cancer cell lines; OVCAR-4, Ovarian Cancer, OVCAR-4
  GI50: 1.11 µM
NCI-60 cancer cell lines; OVCAR-5, Ovarian Cancer, OVCAR-5
  GI50: 1.67 µM
NCI-60 cancer cell lines; OVCAR-8, Ovarian Cancer, OVCAR-8
  GI50: 1.01 µM
NCI-60 cancer cell lines; Ovarian Cancer, NCl/ADR-RES
  GI50: 2.55 µM
NCI-60 cancer cell lines; Prostate Cancer, PC-3
  GI50: 0.64 µM
NCI-60 cancer cell lines; RPMI-8226, Leukemia, RPMI-8226
  GI50: 1.02 µM
NCI-60 cancer cell lines; RXF 393, Renal Cancer, RXF 393
  GI50: 1.13 µM
NCI-60 cancer cell lines; Renal Cancer, U0-31
  GI50: 0.69 µM
NCI-60 cancer cell lines; SF-268, CNS Cancer, SF-268
  GI50: 0.55 µM
NCI-60 cancer cell lines; SF-295, CNS Cancer, SF-295
  GI50: 0.28 µM
NCI-60 cancer cell lines; SF-539, CNS Cancer, SF-539
  GI50: 0.67 µM
NCI-60 cancer cell lines; SK-MEL-2, Melanoma, SK-MEL-2
  GI50: 2.18 µM
NCI-60 cancer cell lines; SK-MEL-5, Melanoma, SK-MEL-5
  GI50: 1.26 µM
NCI-60 cancer cell lines; SK-MEL-28, Melanoma, SK-MEL-28
  GI50: 1.88 µM
NCI-60 cancer cell lines; SK-OV-3, Ovarian Cancer, SK-OV-3
  GI50: 1.15 µM
NCI-60 cancer cell lines; SN12C, Renal Cancer, SN12C
  GI50: 0.45 µM
NCI-60 cancer cell lines; SNB-19, CNS Cancer, SNB-19
  GI50: 1.08 µM
NCI-60 cancer cell lines; SNB-75, CNS Cancer, SNB-75
  GI50: 0.16 µM
NCI-60 cancer cell lines; SW-620, Colon Cancer, SW-620
  GI50: 0.34 µM
NCI-60 cancer cell lines; T47D, Breast Cancer, T-47D
  GI50: 0.7 µM
NCI-60 cancer cell lines; TK-10, Renal Cancer, TK-10
  GI50: 1.85 µM
NCI-60 cancer cell lines; U-251, CNS Cancer, U251
  GI50: 0.33 µM
NCI-60 cancer cell lines; UACC-62, Melanoma, UACC-62
  GI50: 0.95 µM
NCI-60 cancer cell lines; UACC-257, Melanoma, UACC-257
  GI50: 1.57 µM
NCI-60 cancer cell lines; average of GI50 values across the entire panel of NCI-60 cancer cell lines
  mean GI50 across NCI-60 panel (MGM): 0.66 µM
Human topoisomerase I
  Top1 Inhibiton: ++ (medium inhibition, ++, MYC expression inhibited at 2.0 μM, or no clear dose-dependent MYC inhibition)
